#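 Compound exposure: 48 hours, 5 concentrations, 96-well plates. GI50 marks 50% less growth.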 Calls of active or inactive are those of the source. Rule as the data show it: active = GI50 up to about 1.1 µM and inactive = higher.
# How the values were obtained:
# Experiment in all cases: DTP human tumour cell line panel, 48 h
# 786-0 = test system: 786-0
# A498 = test system: A498
# A549 = test system: A549
# ACHN = test system: ACHN
# BT-549 = test system: BT-549
# CAKI-1 = test system: CAKI-1
# CCRF-CEM = test system: CCRF-CEM
# COLO 205 = test system: COLO 205
# DU-145 = test system: DU-145
# HCC 2998 = test system: HCC 2998
# HCT-116 = test system: HCT-116
# HCT-15 = test system: HCT-15
# HL-60 = test system: HL-60
# HT-29 = test system: HT-29
# Hs-578T = test system: Hs-578T
# IGROV-1 = test system: IGROV-1
# K562 = test system: K562
# KM12 = test system: KM12
# LOX IMVI = test system: LOX IMVI
# M14 = test system: M14
# MCF7 = test system: MCF7
# MDA-MB-231 = test system: MDA-MB-231
# MDA-MB-435 = test system: MDA-MB-435
# MDA-N = test system: MDA-N
# MOLT-4 = test system: MOLT-4
# Malme-3M = test system: Malme-3M
# NCI-H226 = test system: NCI-H226
# NCI-H23 = test system: NCI-H23
# NCI-H460 = test system: NCI-H460
# NCI-H522 = test system: NCI-H522
# NCI/ADR-RES = test system: NCI/ADR-RES
# OVCAR-3 = test system: OVCAR-3
# OVCAR-4 = test system: OVCAR-4
# OVCAR-5 = test system: OVCAR-5
# OVCAR-8 = test system: OVCAR-8
# PC-3 = test system: PC-3
# RPMI-8226 = test system: RPMI-8226
# RXF 393 = test system: RXF 393
# SF-268 = test system: SF-268
# SF-295 = test system: SF-295
# SF-539 = test system: SF-539
# SK-MEL-28 = test system: SK-MEL-28
# SK-MEL-2 = test system: SK-MEL-2
# SK-MEL-5 = test system: SK-MEL-5
# SK-OV-3 = test system: SK-OV-3
# SN12C = test system: SN12C
# SNB-19 = test system: SNB-19
# SR = test system: SR
# SW-620 = test system: SW-620
# T47D = test system: T47D
# TK-10 = test system: TK-10
# U-251 = test system: U-251
# UACC-257 = test system: UACC-257
# UACC-62 = test system: UACC-62
# UO-31 = test system: UO-31
# EKVX = test system: EKVX
# HOP-62 = test system: HOP-62
# SNB-75 = test system: SNB-75
smiles,measurement,setting,value
Cc1c(F)c(N)c2c(=O)cc(-c3ccc(NC(=O)CN(C)C)c(F)c3)oc2c1F,GI50,786-0,39.5 µM (inactive)
same,GI50,A498,10 µM (inactive)
same,GI50,A549,89.7 µM (inactive)
same,GI50,ACHN,> 100 µM (inactive)
same,GI50,BT-549,> 100 µM (inactive)
same,GI50,CAKI-1,2.45 µM (inactive)
same,GI50,CCRF-CEM,21 µM (inactive)
same,GI50,COLO 205,36.6 µM (inactive)
same,GI50,DU-145,82.8 µM (inactive)
same,GI50,HCC 2998,21.5 µM (inactive)
same,GI50,HCT-116,> 100 µM (inactive)
same,GI50,HCT-15,61.8 µM
same,GI50,HL-60,18.4 µM (inactive)
same,GI50,HT-29,33.6 µM (inactive)
same,GI50,Hs-578T,> 100 µM (inactive)
same,GI50,IGROV-1,38 µM (inactive)
same,GI50,K562,26.7 µM (inactive)
same,GI50,KM12,32 µM (inactive)
same,GI50,LOX IMVI,33 µM (inactive)
same,GI50,M14,> 100 µM (inactive)
same,GI50,MCF7,7.29 µM (inactive)
same,GI50,MDA-MB-231,27.8 µM (inactive)
same,GI50,MDA-MB-435,48.2 µM (inactive)
same,GI50,MDA-N,> 100 µM (inactive)
same,GI50,MOLT-4,15.5 µM (inactive)
same,GI50,Malme-3M,> 100 µM (inactive)
same,GI50,NCI-H226,11 µM (inactive)
same,GI50,NCI-H23,> 100 µM (inactive)
same,GI50,NCI-H460,24.2 µM (inactive)
same,GI50,NCI-H522,55.1 µM (inactive)
same,GI50,NCI/ADR-RES,68.7 µM (inactive)
same,GI50,OVCAR-3,0.0456 µM (active)
same,GI50,OVCAR-4,23.6 µM (inactive)
same,GI50,OVCAR-5,57 µM (inactive)
same,GI50,OVCAR-8,38.5 µM (inactive)
same,GI50,PC-3,38.3 µM (inactive)
same,GI50,RPMI-8226,23.7 µM (inactive)
same,GI50,RXF 393,> 100 µM (inactive)
same,GI50,SF-268,28.4 µM (inactive)
same,GI50,SF-295,68.1 µM (inactive)
same,GI50,SF-539,> 100 µM (inactive)
same,GI50,SK-MEL-28,47.9 µM (inactive)
same,GI50,SK-MEL-2,60.7 µM (inactive)
same,GI50,SK-MEL-5,53.5 µM (inactive)
same,GI50,SK-OV-3,> 100 µM (inactive)
same,GI50,SN12C,> 100 µM (inactive)
same,GI50,SNB-19,54.1 µM (inactive)
same,GI50,SR,17.6 µM (inactive)
same,GI50,SW-620,18.3 µM (inactive)
same,GI50,T47D,> 100 µM (inactive)
same,GI50,TK-10,18.5 µM (inactive)
same,GI50,U-251,24.8 µM (inactive)
same,GI50,UACC-257,> 100 µM (inactive)
same,GI50,UACC-62,26.4 µM (inactive)
same,GI50,UO-31,86.1 µM (inactive)
C[N+](C)([O-])CCCNc1ccnc2cccc([N+](=O)[O-])c12,GI50,786-0,> 100 µM (inactive)
same,GI50,A498,51.3 µM (inactive)
same,GI50,A549,47.4 µM (inactive)
same,GI50,ACHN,33.1 µM (inactive)
same,GI50,BT-549,41.9 µM (inactive)
same,GI50,CAKI-1,44.1 µM (inactive)
same,GI50,CCRF-CEM,31.6 µM (inactive)
same,GI50,COLO 205,20.7 µM (inactive)
same,GI50,DU-145,20.9 µM (inactive)
same,GI50,EKVX,> 100 µM (inactive)
same,GI50,HCC 2998,27.3 µM (inactive)
same,GI50,HCT-116,28.4 µM (inactive)
same,GI50,HCT-15,24.2 µM
same,GI50,HL-60,20.2 µM (inactive)
same,GI50,HOP-62,83 µM (inactive)
same,GI50,HT-29,32.9 µM (inactive)
same,GI50,Hs-578T,21.1 µM (inactive)
same,GI50,IGROV-1,46 µM (inactive)
same,GI50,K562,38.5 µM (inactive)
same,GI50,KM12,33 µM (inactive)
same,GI50,LOX IMVI,28.2 µM (inactive)
same,GI50,M14,37.7 µM (inactive)
same,GI50,MCF7,27.4 µM (inactive)
same,GI50,MDA-MB-231,53.5 µM (inactive)
same,GI50,MDA-MB-435,46.2 µM (inactive)
same,GI50,MDA-N,30.6 µM (inactive)
same,GI50,MOLT-4,20.2 µM (inactive)
same,GI50,Malme-3M,28.1 µM (inactive)
same,GI50,NCI-H226,47.1 µM (inactive)
same,GI50,NCI-H23,34.6 µM (inactive)
same,GI50,NCI-H460,15.5 µM (inactive)
same,GI50,NCI-H522,14.2 µM (inactive)
same,GI50,OVCAR-3,20.7 µM (inactive)
same,GI50,OVCAR-4,20.5 µM (inactive)
same,GI50,OVCAR-5,> 100 µM (inactive)
same,GI50,OVCAR-8,81.3 µM (inactive)
same,GI50,PC-3,45.8 µM (inactive)
same,GI50,RPMI-8226,21.5 µM (inactive)
same,GI50,RXF 393,18.7 µM (inactive)
same,GI50,SF-268,27 µM (inactive)
same,GI50,SF-295,92.7 µM (inactive)
same,GI50,SF-539,22 µM (inactive)
same,GI50,SK-MEL-28,72.6 µM (inactive)
same,GI50,SK-MEL-2,19.8 µM (inactive)
same,GI50,SK-MEL-5,16.1 µM (inactive)
same,GI50,SK-OV-3,80.7 µM (inactive)
same,GI50,SN12C,47.1 µM (inactive)
same,GI50,SNB-19,> 100 µM (inactive)
same,GI50,SNB-75,39.2 µM (inactive)
same,GI50,SR,34.2 µM (inactive)
same,GI50,SW-620,31.1 µM (inactive)
same,GI50,T47D,40 µM (inactive)
same,GI50,TK-10,24.9 µM (inactive)
same,GI50,U-251,34.8 µM (inactive)
same,GI50,UACC-257,45.8 µM (inactive)
same,GI50,UACC-62,31.3 µM (inactive)
same,GI50,UO-31,46.5 µM (inactive)

# From ChEMBL document CHEMBL1201862, “PubChem BioAssay data set” (2004)
